From patent publication EP0475531A1, “Benzoic acid phenylester compounds and elastase inhibiting compositions containing the same” (Asahi Kasei Kogyo Kabushiki Kaisha, priority 1990, dated 1992)
Where two headings read alike, the source gives them in different places.

Target: T1, human leukocyte elastase (Homo sapiens, UniProt P08246)
T1 sequence (P08246 30-267): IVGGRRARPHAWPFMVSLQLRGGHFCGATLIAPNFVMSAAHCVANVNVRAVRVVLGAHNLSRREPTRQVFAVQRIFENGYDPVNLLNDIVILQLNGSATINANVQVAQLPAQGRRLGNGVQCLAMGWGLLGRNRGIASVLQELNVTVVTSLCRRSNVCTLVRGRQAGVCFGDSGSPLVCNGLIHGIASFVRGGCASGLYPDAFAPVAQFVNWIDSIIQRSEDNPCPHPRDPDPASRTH
Assay: in vitro human leukocyte elastase inhibiting activity (fluorogenic substrate, method of JP-A-2-101017 with slight modification)
Type: biochemical
Description: Thus, methoxysuccinyl-Ala-Ala-Pro-Val-7-amido-4-methylcoumarin was used as a substrate for human leukocyte elastase and the 50% inhibitory concentration (IC₅₀) was measured. The enzymatic reaction was carried out in 0.2 M Tris-hydrochloride buffer (containing 0.02 M CaCl₂ and 0.005% Triton X-100) at pH 7.2. Each mixture of test compound solution and the enzyme solution was incubated at 25°C for 20 minutes.

[1] = 50% inhibitory concentration, substrate methoxysuccinyl-Ala-Ala-Pro-Val-7-amido-4-methylcoumarin, 0.2 M Tris-hydrochloride buffer (0.02 M CaCl2, 0.005% Triton X-100), pH 7.2, compound and enzyme incubated at 25°C for 20 minutes, read-out: IC50

Compound | IC50 [1] | IC50
O=C(Nc1ccc(C(=O)Oc2cc(Cl)cc(Cl)c2)cc1)OCc1ccccc1 [Compound 34, 3,5-dichlorophenyl 4-(benzyloxycarbonylamino)benzoate] | 260 nM | –
O=C(Oc1cc(Cl)cc(Cl)c1)c1ccc(NC(=O)C2CCCCC2)cc1 [Compound 18, 3,5-dichlorophenyl 4-(cyclohexanecarbonylamino)benzoate] | 10 nM | –
CC(C(=O)O)C(C)C(=O)Nc1ccc(C(=O)Oc2cc(Cl)cc(Cl)c2)cc1 (stereo not drawn) [Compound 42, 3,5-dichlorophenyl 4-(meso-2,3-dimethylsuccinylamino)benzoate] | 2.1 nM | –
CC(C)C(=O)Nc1ccc(C(=O)Oc2cc([N+](=O)[O-])ccc2[N+](=O)[O-])cc1 [Compound 50, 2,5-dinitrophenyl 4-(isobutanoylamino)benzoate] | – | 4.7 nM
CC(C)C(=O)Nc1ccc(C(=O)Oc2cc(Cl)cc(OS(=O)(=O)c3cccs3)c2)cc1 [Compound 87, 3-chloro-5-(2-thiophenesulfonyloxy)phenyl 4-(isobutanoylamino)benzoate] | 19 nM | –
COC(=O)c1ccc(Cl)cc1OC(=O)c1ccc(NC(=O)C(C)C)cc1 [Compound 63, 3-chloro-6-(methoxycarbonyl)phenyl 4-(isobutanoylamino)benzoate] | 97 nM | –
CC(C)C(=O)Nc1ccc(C(=O)Oc2cc(Cl)cc(OC(=O)C3CC3)c2)cc1 [Compound 77, 3-chloro-5-(cyclopropanecarbonyloxy)phenyl 4-(isobutanoylamino)benzoate] | 3.8 nM | –
CC(C)C(=O)Nc1ccc(C(=O)Oc2cc(C(F)(F)F)cc(C(F)(F)F)c2)cc1 [Compound 64] | 220 nM | –
CC(C)C(=O)Nc1ccc(C(=O)Oc2c(F)cccc2F)cc1 [Compound 69, 2,6-difluorophenyl 4-(isobutanoylamino)benzoate] | 25 nM | –
CC(C)C(=O)Nc1ccc(C(=O)Oc2cccc(OC(F)(F)F)c2)cc1 [Compound 89, 3-trifluoromethoxyphenyl 4-(isobutanoylamino)benzoate] | 400 nM | –
CC(C)C(=O)Nc1ccc(C(=O)Oc2cccc(Br)c2)cc1 [Compound 72, 3-bromophenyl 4-(isobutanoylamino)benzoate] | 21 nM | –
CS(=O)(=O)Nc1ccc(C(=O)Oc2cc(Cl)cc(Cl)c2)cc1 [Compound 24, 3,5-dichlorophenyl 4-(methanesulfonylamino)benzoate] | 98 nM | –
CC(C)C(=O)Nc1ccc(C(=O)Oc2cccc([N+](=O)[O-])c2)cc1 [Compound 92, 3-nitrophenyl 4-(isobutanoylamino)benzoate] | 91 nM | –
Cc1ccc([N+](=O)[O-])c(OC(=O)c2ccc(NC(=O)C(C)C)cc2)c1 [Compound 52, 3-methyl-6-nitrophenyl 4-(isobutanoylamino)benzoate] | 15 nM | –
CC(C)C(=O)Nc1ccc(C(=O)Oc2cc(Cl)cc(OS(=O)(=O)Cc3ccccc3)c2)cc1 [Compound 84, 3-chloro-5-(phenylmethanesulfonyloxy)phenyl 4-(isobutanoylamino)benzoate] | 21 nM | –
CC(C)(C)OC(=O)Nc1ccc(C(=O)Oc2cc(C=O)ccc2[N+](=O)[O-])cc1 [Compound 47, 3-formyl-6-nitrophenyl 4-(tert-butoxycarbonylamino)benzoate] | 3.8 nM | –

Compound | IC50 [1] | IC50
CC(C)C(=O)Nc1ccc(C(=O)Oc2cc(Cl)cc(OCc3ccccc3)c2)cc1 [Compound 88, 3-benzyloxy-5-chlorophenyl 4-(isobutanoylamino)benzoate] | 48 nM | –
CC(=O)Oc1cc(C#N)cc(OC(=O)c2ccc(NC(=O)C(C)C)cc2)c1 [Compound 93, 3-cyano-5-acetoxyphenyl 4-(isobutanoylamino)benzoate] | 36 nM | –
CSC(C)C(=O)Nc1ccc(C(=O)Oc2cc(Cl)cc(Cl)c2)cc1 (centres unmarked) [Compound 38, 3,5-dichlorophenyl 4-(2-methylthiopropanoylamino)benzoate] | 18 nM | –
O=C(C=Cc1ccccc1)Nc1ccc(C(=O)Oc2cc(Cl)cc(Cl)c2)cc1 [Compound 21, 3,5-dichlorophenyl 4-(cinnamoylamino)benzoate] | 140 nM | –
O=C(Oc1cc(Cl)cc(Cl)c1)c1ccc(NC(=O)C2CCCCC2C(=O)O)cc1 (centres unmarked) [Compound 44, 3,5-dichlorophenyl 4-(2-hydroxycarbonylcyclohexanecarbonylamino)benzoate] | 18 nM | –
CC(C)C(=O)Nc1ccc(C(=O)Oc2cc(Cl)cc(OS(=O)(=O)C=Cc3ccccc3)c2)cc1 [Compound 86, 3-chloro-5-(β-styrenesulfonyloxy)phenyl 4-(isobutanoylamino)benzoate] | 24 nM | –
CCS(=O)(=O)Oc1cc(Cl)cc(OC(=O)c2ccc(NC(=O)C(C)C)cc2)c1 [Compound 83, 3-chloro-5-(ethanesulfonyloxy)phenyl 4-(isobutanoylamino)benzoate] | 25 nM | –
CC(C(=O)Nc1ccc(C(=O)Oc2cc(Cl)cc(Cl)c2)cc1)c1ccccc1 (centres unmarked) [Compound 20, 3,5-dichlorophenyl 4-(2-methyl-2-phenylacetylamino)benzoate] | 12 nM | –
CC(C)C(=O)Nc1ccc(C(=O)Oc2cc(F)cc(F)c2)cc1 [Compound 70, 3,5-difluorophenyl 4-(isobutanoylamino)benzoate] | 26 nM | –
CC(C)(C)C(=O)Nc1ccc(C(=O)Oc2cc(C=O)ccc2[N+](=O)[O-])cc1 [Compound 60, 3-formyl-6-nitrophenyl 4-(pivaloylamino)benzoate] | 4.2 nM | –
CC(C)C(=O)Nc1ccc(C(=O)Oc2cccc(F)c2F)cc1 [Compound 67, 2,3-difluorophenyl 4-(isobutanoylamino)benzoate] | 88 nM | –
COc1cc(Cl)cc(OC(=O)c2ccc(NC(=O)C(C)C)cc2)c1 [Compound 90, 3-chloro-5-methoxyphenyl 4-(isobutanoylamino)benzoate] | 11 nM | –
CC(C)C(=O)Nc1ccc(C(=O)Oc2cc(F)ccc2F)cc1 [Compound 68, 2,5-difluorophenyl 4-(isobutanoylamino)benzoate] | 110 nM | –
CC(C)(C)C(=O)Nc1ccc(C(=O)Oc2cc(F)ccc2[N+](=O)[O-])cc1 [Compound 59, 3-fluoro-6-nitrophenyl 4-(pivaloylamino)benzoate] | 2.7 nM | –
CC(C)C(=O)Nc1ccc(C(=O)Oc2cccc(C(F)(F)F)c2)cc1 [Compound 94, 3-trifluoromethylphenyl 4-(isobutanoylamino)benzoate] | 240 nM | –
CN(C)C(=O)Nc1ccc(C(=O)Oc2cc(Cl)cc(Cl)c2)cc1 [Compound 32, 3,5-dichlorophenyl 4-(3,3-dimethylureido)benzoate] | 5.9 nM | –

The next lines start with results.

IC50 [1] | Compound | IC50
3.5 nM | C=C(C)C(=O)Nc1ccc(C(=O)Oc2cc(Cl)cc(Cl)c2)cc1 [Compound 14, 3,5-dichlorophenyl 4-(2-methylpropenoylamino)benzoate] | –
96 nM | CC(S)C(=O)Nc1ccc(C(=O)Oc2cc(Cl)cc(Cl)c2)cc1 (centres unmarked) [Compound 39, 3,5-dichlorophenyl 4-(2-mercaptopropanoylamino)benzoate] | –
21 nM | CCNC(=O)Nc1ccc(C(=O)Oc2cc(Cl)cc(Cl)c2)cc1 [Compound 27, 3,5-dichlorophenyl 4-(3-ethylureido)benzoate] | –
20 nM | CCCCNC(=O)Nc1ccc(C(=O)Oc2cc(Cl)cc(Cl)c2)cc1 [Compound 29, 3,5-dichlorophenyl 4-(3-butylureido)benzoate] | –
37 nM | CCCCCC(=O)Nc1ccc(C(=O)Oc2cc(Cl)cc(Cl)c2)cc1 [Compound 5, 3,5-dichlorophenyl 4-(hexanoylamino)benzoate] | –
23 nM | CCCCC(=O)Nc1ccc(C(=O)Oc2cc(Cl)cc(Cl)c2)cc1 [Compound 4, 3,5-dichlorophenyl 4-(pentanoylamino)benzoate] | –
28 nM | O=C(Oc1cc(Cl)cc(Cl)c1)c1ccc(NC(=O)C(Cl)(Cl)Cl)cc1 [Compound 10, 3,5-dichlorophenyl 4-(trichloroacetylamino)benzoate] | –
38 nM | O=C(Nc1ccc(C(=O)Oc2cc(Cl)cc(Cl)c2)cc1)OCCO [Compound 35, 3,5-dichlorophenyl 4-(2-hydroxyethoxycarbonylamino)benzoate] | –
7 nM | CCC(=O)Nc1ccc(C(=O)Oc2cc(Cl)cc(Cl)c2)cc1 [Compound 2, 3,5-dichlorophenyl 4-(propanoylamino)benzoate] | –
7.6 nM | O=C(O)CCCC(=O)Nc1ccc(C(=O)Oc2cc(Cl)cc(Cl)c2)cc1 [Compound 43, 3,5-dichlorophenyl 4-(glutarylamino)benzoate] | –
9.2 nM | O=C(Oc1cc(Cl)cc(Cl)c1)c1ccc(NC(=O)C2CCC2)cc1 [Compound 16, 3,5-dichlorophenyl 4-(cyclobutanecarbonylamino)benzoate] | –
1.9 nM | CCCC(=O)Nc1ccc(C(=O)Oc2cc(Cl)cc(Cl)c2)cc1 [Compound 3, 3,5-dichlorophenyl 4-(butanoylamino)benzoate] | –
16 nM | CCCNC(=O)Nc1ccc(C(=O)Oc2cc(Cl)cc(Cl)c2)cc1 [Compound 28, 3,5-dichlorophenyl 4-(3-propylureido)benzoate] | –
18 nM | CC(C)(CCl)C(=O)Nc1ccc(C(=O)Oc2cc(Cl)cc(Cl)c2)cc1 [Compound 45, 3,5-dichlorophenyl 4-(3-chloro-2,2-dimethylpropanoylamino)benzoate] | –
6.4 nM | CC(C)(C)C(=O)Nc1ccc(C(=O)Oc2cc(Cl)cc(Cl)c2)cc1 [Compound 8, 3,5-dichlorophenyl 4-(pivaloylamino)benzoate] | –
